Reference: US12528826B2, “[1,4]oxazepino[2,3-c]quinolinone derivatives as BCL6 inhibitors” (Cancer Research Technology Limited, priority 2019, dated 2026)

Target: T1, Trx-6×His-BCL6 (human BCL6 BTB domain covering amino-acid sequence 5-129) (Homo sapiens, UniProt P41182)
T1 construct: made in house
Assay: HTRF assay (BCL6 / BCOR peptide)
Assay type: binding
Settings: 1 nM Trx-6×His-BCL6, 300 nM BCOR-AF633 peptide, 2 hours incubation at room temperature; for IC50: read-out: HTRF avg pIC50 (converted)
Procedure: After 2 hours incubation at room temperature the plate was read on a Pherastar FSX (BMG Labtech) plate reader equipped with 337 nm laser excitation filter, a first emission filter at 620 nm and a second emission filter at 665 nm. The % inhibition at each concentration was calculated by normalising FRET ratio to the appropriate high (DMSO with all reagents) and low (DMSO without BCL6) controls.

| Compound | IC50 | HTRF avg pIC50 |
| --- | --- | --- |
| Cn1c(=O)c2c(c3cc(Nc4nc(N5CC6(CN(CC7CC7)C6)C5)ncc4Cl)ccc31)N[C@@H](C1CC1)C(F)(F)CO2 [Example 9w, (S)-10-((5-chloro-2-(6-(cyclopropylmethyl)-2,6-diazaspiro[3.3]heptan-2-yl)pyrimidin-4-yl)amino)-2-cyclopropyl-3,3-difluoro-7-methyl-1,2,3,4-tetrahydro-[1,4]oxazepino[2,3-c]quinolin-6(7H)-one] | 2.75 nM | – |
| Cn1c(=O)c2c(c3cc(Nc4nc(N5CCC[C@H](O)C5)ncc4Cl)ccc31)N[C@@H](C1CC1)C(F)(F)CO2 [Example 1i, (S)-10-((5-chloro-2-((S)-3-hydroxypiperidin-1-yl)pyrimidin-4-yl)amino)-2-cyclopropyl-3,3-difluoro-7-methyl-1,2,3,4-tetrahydro-[1,4]oxazepino[2,3-c]quinolin-6(7H)-one] | – | 8.51 |
| Cn1c(=O)c2c(c3cc(Nc4nc(N5CCC(F)(F)C(O)C5)ncc4Cl)ccc31)N[C@@H](C1CC1)C(F)(F)CO2 (mixture of isomers) [Example 9e, (S)-10-((5-chloro-2-((R)-4,4-difluoro-3-hydroxypiperidin-1-yl)pyrimidin-4-yl)amino)-2-cyclopropyl-3,3-difluoro-7-methyl-1,2,3,4-tetrahydro-[1,4]oxazepino[2,3-c]quinolin-6(7H)-one; (S)-10-((5-chloro-2-((S)-4,4-difluoro-3-hydroxypiperidin-1-yl)pyrimidin-4-yl)amino)-2-cyclopropyl-3,3-difluoro-7-methyl-1,2,3,4-tetrahydro-[1,4]oxazepino[2,3-c]quinolin-6(7H)-one] | 3.72 nM | – |
| Cn1c(=O)c2c(c3cc(Nc4nc(N5C[C@H]6C[C@@H]5CO6)ncc4Cl)ccc31)N[C@@H](C1CC1)C(F)(F)CO2 [Example 1e, (S)-10-((2-((1R,4R)-2-oxa-5-azabicyclo[2.2.1]heptan-5-yl)-5-chloropyrimidin-4-yl)amino)-2-cyclopropyl-3,3-difluoro-7-methyl-1,2,3,4-tetrahydro-[1,4]oxazepino[2,3-c]quinolin-6(7H)-one] | 3.24 nM | – |
| Cn1c(=O)c2c(c3cc(Nc4nc(N5C[C@H]6CC[C@@H](C5)O6)ncc4F)ccc31)N[C@@H](C1CC1)C(F)(F)CO2 [Example 13p11, (S)-10-((2-((1R,5S)-8-oxa-3-azabicyclo[3.2.1]octan-3-yl)-5-fluoropyrimidin-4-yl)amino)-2-cyclopropyl-3,3-difluoro-7-methyl-1,2,3,4-tetrahydro-[1,4]oxazepino[2,3-c]quinolin-6(7H)-one] | 7.24 nM | – |
| C[C@H]1CN(c2ncc(F)c(Nc3ccc4c(c3)c3c(c(=O)n4C)OCC(F)(F)[C@H](C4CC4)N3)n2)CCO1 [Example 13p08, (S)-2-cyclopropyl-3,3-difluoro-10-((5-fluoro-2-((S)-2-methylmorpholino)pyrimidin-4-yl)amino)-7-methyl-1,2,3,4-tetrahydro-[1,4]oxazepino[2,3-c]quinolin-6(7H)-one] | 10.5 nM | – |
| Cn1c(=O)c2c(c3cc(Nc4nc(N5CCCC(CF)C5)ncc4Cl)ccc31)N[C@@H](C1CC1)C(F)(F)CO2 (mixture of isomers) [Example 9f, (S)-10-((5-chloro-2-((R)-3-(fluoromethyl)piperidin-1-yl)pyrimidin-4-yl)amino)-2-cyclopropyl-3,3-difluoro-7-methyl-1,2,3,4-tetrahydro-[1,4]oxazepino[2,3-c]quinolin-6(7H)-one; (S)-10-((5-chloro-2-((S)-3-(fluoromethyl)piperidin-1-yl)pyrimidin-4-yl)amino)-2-cyclopropyl-3,3-difluoro-7-methyl-1,2,3,4-tetrahydro-[1,4]oxazepino[2,3-c]quinolin-6(7H)-one] | 10.2 nM | – |
| CC(=O)N[C@H]1C[C@@H](C)CN(c2ncc(Cl)c(Nc3ccc4c(c3)c3c(c(=O)n4C)OCC(F)(F)[C@H](C4CC4)N3)n2)C1 [Example 1f, N-((3S,5R)-1-(5-chloro-4-(((S)-2-cyclopropyl-3,3-difluoro-7-methyl-6-oxo-1,2,3,4,6,7-hexahydro-[1,4]oxazepino[2,3-c]quinolin-10-yl)amino)pyrimidin-2-yl)-5-methylpiperidin-3-yl)acetamide] | – | 8.60 |
| (S)-10-((5-chloro-2-((R)-4,4-difluoro-3-methylpiperidin-1-yl)pyrimidin-4-yl)amino)-2-cyclopropyl-3,3-difluoro-7-methyl-1,2,3,4-tetrahydro-[1,4]oxazepino[2,3-c]quinolin-6(7H)-one or (S)-10-((5-chloro-2-((S)-4,4-difluoro-3-methylpiperidin-1-yl)pyrimidin-4-yl)amino)-2-cyclopropyl-3,3-difluoro-7-methyl-1,2,3,4-tetrahydro-[1,4]oxazepino[2,3-c]quinolin-6(7H)-one [Example 14b] | – | 7.33 |
| CC1CC(C(=O)N2CCC2)CN(c2ncc(Cl)c(Nc3ccc4c(c3)c3c(c(=O)n4C)OCC(F)(F)[C@H](C4CC4)N3)n2)C1 (stereo partly drawn) [Example 12x30, (2S)-10-((2-(3-(azetidine-1-carbonyl)-5-methylpiperidin-1-yl)-5-chloropyrimidin-4-yl)amino)-2-cyclopropyl-3,3-difluoro-7-methyl-1,2,3,4-tetrahydro-[1,4]oxazepino[2,3-c]quinolin-6(7H)-one] | 2 nM | – |
| Cn1c(=O)c2c(c3cc(Nc4nc(N5CCC(F)(F)C(CC(=O)N6CCC6)C5)ncc4Cl)ccc31)N[C@@H](C1CC1)C(F)(F)CO2 (mixture of isomers) [Example 12x21, (2S)-10-((2-(3-(2-(azetidin-1-yl)-2-oxoethyl)-4,4-difluoropiperidin-1-yl)-5-chloropyrimidin-4-yl)amino)-2-cyclopropyl-3,3-difluoro-7-methyl-1,2,3,4-tetrahydro-[1,4]oxazepino[2,3-c]quinolin-6(7H)-one] | 3.55 nM | – |

Continued, in another order:

| IC50 | Compound | HTRF avg pIC50 |
| --- | --- | --- |
| 10 nM | Cn1c(=O)c2c(c3cc(Nc4nc(N5CCCC(C(F)F)C5)ncc4Cl)ccc31)N[C@@H](C1CC1)C(F)(F)CO2 (mixture of isomers) [Example 11r, (S)-10-((5-chloro-2-((R)-3-(difluoromethyl)piperidin-1-yl)pyrimidin-4-yl)amino)-2-cyclopropyl-3,3-difluoro-7-methyl-1,2,3,4-tetrahydro-[1,4]oxazepino[2,3-c]quinolin-6(7H)-one:(S)-10-((5-chloro-2-((S)-3-(difluoromethyl)piperidin-1-yl)pyrimidin-4-yl)amino)-2-cyclopropyl-3,3-difluoro-7-methyl-1,2,3,4-tetrahydro-[1,4]oxazepino[2,3-c]quinolin-6(7H)-one (1:1)] | – |
| 2.95 nM | C[C@H]1C[C@@H](N)CN(c2ncc(Cl)c(Nc3ccc4c(c3)c3c(c(=O)n4C)OCC(F)(F)[C@H](C4CC4)N3)n2)C1 [Example 12c, (S)-10-((2-((3R,5S)-3-amino-5-methylpiperidin-1-yl)-5-chloropyrimidin-4-yl)amino)-2-cyclopropyl-3,3-difluoro-7-methyl-1,2,3,4-tetrahydro-[1,4]oxazepino[2,3-c]quinolin-6(7H)-one] | – |
| 4.07 nM | Cn1c(=O)c2c(c3cc(Nc4nc(N5CC(C#N)C5)ncc4Cl)ccc31)N[C@@H](C1CC1)C(F)(F)CO2 [Example 11p, (S)-1-(5-chloro-4-((2-cyclopropyl-3,3-difluoro-7-methyl-6-oxo-1,2,3,4,6,7-hexahydro-[1,4]oxazepino[2,3-c]quinolin-10-yl)amino)pyrimidin-2-yl)azetidine-3-carbonitrile] | – |
